The compounds below were run on female F344 rats (assay: Effect on bone density (femur, DXA) after oophorectomy or sham surgery). Settings: at 3 mg/kg or less, orally once a day, six days a week, six weeks.
Format: in vivo
Method: Eight to 12 week old female F344 rats were purchased from Charles River Laboratories and used in the following experiment. Rats were anesthetized with an intraperitoneal administration of 40 mg/kg of Somnopentyl (Kyoritsu Seiyaku Corporation), and then oophorectomy or sham surgery was performed. From the day after surgery, a suspension of the test compound in a 0.5% methyl cellulose solution (Wako Pure Chemical Industries, Ltd. Cat. No. 133-14255) was orally administered once a day, six days a week. Six weeks after administration, the rats were euthanized by removal of whole blood from the lower abdominal aorta under Somnopentyl anesthesia, and the left and right femur was excised.
After removal of soft tissues, the bone density of the femur thus excised was measured by a DXA apparatus, DCS-600R (Aloka Co., Ltd.). The bone density was assessed in the whole femur as well as in three equal sections of the whole femur, namely the proximal end, the shaft, and the distal end.
With `NC(=O)c1ccc2cncc(-c3ccc(Cl)cc3)c2c1` [Example 118] the “bone density of the femur” value was “significantly increased the bone density”.
In the case of `NC(=O)c1ccc2cncc(-c3ccc(OCCO)cc3)c2c1` [Example 36], the “bone density of the femur” value is reported as “significantly increased the bone density”.
`NC(=O)c1ccc2cncc(-c3ccc(OCCOC4CCOCC4)cc3)c2n1` [Example 9, 8-{4-[2-(Tetrahydro-2H-pyran-4-yloxy)ethoxy]phenyl}-1,6-naphthyridine-2-carboxamide] was tested, and the “bone density of the femur” value was “significantly increased the bone density”.
In the case of `Cn1ccc2cc(-c3cncc4ccc(C(N)=O)cc34)ccc21` [Example 33], the “bone density of the femur” value is reported as “significantly increased the bone density”.
